# According to patent US20190269715A1, “COMPOSITIONS AND METHOD OF USE OF A-TYPE PROCYANIDINS” (MARS, INCORPORATED, priority 2004, published 2019):
# What was measured:
# [1] = target: Leukemia virus reverse transcriptase (Moloney murine leukemia virus, UniProt P03355); conditions: cited from earlier work
# rabbit aortic rings = assay: Ex vivo endothelium-dependent relaxation of NE pre-constricted rabbit aortic rings; conditions: for relaxation in pre-contracted aortic rings, dose dependence: FIGS. 1A-1C, 10^-9 to 10^-4 M cumulative; for vasorelaxation, percent relaxation of NE constricted rings: concentration 10^−4M, +/−SE; for relaxant potency compared with positive control acetylcholine: significant at p=0.005 for A1 dimer
# Procedure: Effect of A-type procyanidins on endothelium-dependent relaxation was tested in an ex vivo experiment performed as previously described by Karim et al., J. Nutrl Suppl., 130 (8S): […]-[…] (2000), the relevant portions of which are hereby incorporated herein by reference. The advantage of using this method is that it assesses functional cardiovascular end points. […] In summary, rabbit aortic rings were obtained from male New Zealand White rabbits. Following isolation, the rings were mounted in oxygenated Kreb's buffer, and pre-constricted with NE (10^-6 M). When the tension had reached a steady state, cumulative concentrations of the test compounds were applied (10^-9 to 10^-4 M). A positive control acetylcholine (10^-6M) and a negative control L-NAME were included in the experiment. Use of L-NAME, which is a NO synthase (NOS) inhibitor, allows for differentiating between endothelium dependent and endothelium independent relaxation events. Denuding of aortic rings represent a similar control. 400 U/mL of catalase was added into the aortic bath prior to the addition of each of the test compounds to ensure that the observed effects are not caused by hydrogen peroxide (H202) generation in the culture medium. The relaxation response was measured as a function of the decrease in the tension (g) exerted by the aortic rings over time. Data obtained were expressed as a percent relaxation of the norepinephrine (NE) constricted rings. The same statistical approach as described above was used. Dose response curves were obtained by plotting the average percent relaxation (+/-SE) against the concentrations used.
# platelets in whole blood = assay: Collagen-induced platelet aggregation in whole blood (platelet counting); type: cell-based, human; conditions: collagen 0.125-0.5 μg/ml, A1 dimer 0.3 mM; for collagen-induced platelet aggregation: FIG. 2, 4 and 10 min, ASA 100 μM
# Procedure: Platelet aggregation of A1 dimer [A1D] was measured using a platelet counting technique, and formation of platelet/monocyte conjugates (P/M) and platelet/neutrophil conjugates (PIN) by flow cytometry. In later experiments the activation state of platelets associated with leukocytes (CD62P) was also measured and also the activation state of the leukocytes themselves (CD11b).
# A1 dimer [A1D] was dissolved in ethanol. Once in solution, further dilution with saline was possible. Hirudin, (Revasc™) was obtained from Novartis (Basel, Switzerland) and was stored as a 5 mg/ml solution in saline in a glass vial at −20° C. Collagen (Nycomed) was from Axis Shield Diagnostics (Dundee, UK). Concentrations were prepared from the stock solution (1 mg/ml) using the isotonic glucose buffer supplied by the manufacturer. Aspirin (acetyl salicylic acid-ASA), adenosine diphosphate (ADP), platelet activating factor (PAF), arachidonic acid (AA) and epinephrine were from Sigma. Fixing solution consisted of 140 mM NaCl containing 0.16% w/v formaldehyde, 4.6 mM Na2EDTA, 4.5 mM Na2HP04 and 1.6 mM KH2PO4, pH 7.4.
# Blood samples were studied using the Multi-Sample Agitator (MSA) produced by the Medical Engineering Unit (University of Nottingham). The MSA is used to maintain blood samples at 37° C. and to agitate small samples of blood at a stir speed of 1,000 rpm as required. […]
# Following the 30 min pre-incubation, aliquots of blood (480 μl) were dispensed into small polystyrene tubes each containing a stir bar and stirred for 2 min in the MSA. […] The platelet count in the fixed samples was determined using the UltraFlo-100 Whole Blood Platelet Counter. Platelet aggregation was calculated as the percentage loss of single platelets with reference to the platelet count of the EDTA sample.
# Blood was obtained from three different volunteers and the platelet aggregation and platelet/leukocyte conjugate formation was measured in response to collagen (0, 0.125, 0.25 and 0.5 μg/ml). […] Aggregation was measured at 4 and 10 min following agonist addition and platelet/leukocyte conjugate formation only at 10 min. […]
# [2] = tested on: CD11b on monocytes and neutrophils; assay: Leukocyte activation (CD11b expression) by flow cytometry; type: cell-based, human; conditions: FIG. 3; 10 min; collagen 0.125-0.5 μg/ml; A1 dimer 0.3 mM, aspirin 100 μM
# Procedure: Platelet-leukocyte conjugate formation was measured in the same stirred samples used to measure platelet aggregation. Sub samples were taken 4 min or 10 min following the addition of agonist and transferred into the appropriate antibody or antibody mixture. These were then incubated in the dark at room temperature for not less than 20 min. Following red cell lysis and a washing procedure the cell suspensions were applied to either the FACScan or the LSRII flow cytometer. Leukocytes were identified by logical gating from dot plots of forward scatter (cell size) and side scatter (cell granularity) profiles acquired with linear amplification. […] Fluorescence parameters were acquired with logarithmic amplification. Platelet monocyte (P/M) and platelet neutrophil (P/N) conjugates were quantified as median CD42a (FITC) fluorescence of the monocyte (P/M mf) or neutrophil population (PIN mf). Leukocyte activation was measured by CD11b (AlexaFluor647) expression (CD11b-M for monocytes and CD11b-N for neutrophils). Platelet activation (P-selectin expression) was measured by CD62P (PE) positivity of the platelets associated with leukocytes as (CD62P-M on P/M and CD62P-N on PIN). […]
# Blood was obtained from three different volunteers and the platelet aggregation (4 min) and platelet/leukocyte conjugate formation (10 min) was measured in response to collagen (0, 0.125, 0.25 and 0.5 μg/ml). […]
# [3] = tested on: human umbilical vein endothelial cell (HUVEC); assay: NO production (NOx) in serum-free HUVEC culture; type: cell-based
# Procedure: The compounds obtained as described in Example 1, were investigated for their effect on nitric oxide (NO) production and vasorelaxation using serum-free human umbilical vein endothelial cell (HUVEC) culture system in vitro and rabbit aortic ring model ex vivo, respectively. NO production by endothelial cells and relaxation of pre-constricted aortic rings are two main markers for evaluating cardiovascular effects of test compounds.
# HUVECs obtained from a single donor were cultured in serum free, low protein (0.5 g/l), antibiotic-free cell culture medium supplemented with essential growth factors, nutrients and minerals. […] The cell culture medium was substituted with apo-transferrin, superoxide dismutase, and catalase to exclude secondary effects of test compounds involving their auto-oxidation mediated hydrogen peroxide formation.
# (§1) Test compounds were evaluated with respect to their potential to acutely (2 hours) and chronically (5 doses given in a 24 h period) modulate NO production. Positive controls (acetylcholine and/or histamine) and negative control L-NNMA (NO synthase inhibitor) were included in all experiments. Cell counts and total protein were used to assess intra-assay variation. Potential toxic effects of tested compounds were also monitored (MTT reduction was measured).
# NO production was evaluated by measuring the total amount of all major nitric oxide end products (NOx, including nitrate, nitrite, nitrosothiols) present in the cell culture medium. […] The amount of NO released from the culture medium was subsequently evaluated by measuring the chemiluminescence emitted during the stoichiometrical reaction between ozone and NO using NO Analyzer (Sievers Instruments, Inc. Boulder, Colo.).
# The data presented herein were obtained from three experiments and were expressed as the concentration of NO present (in μmol/l) (as NOx) in the cell culture medium+/−standard deviation (SD). The data were corrected for the NOx intrinsically present in the fully supplemented cell culture medium and normalized with respect ot the volume of media from which the ample was drawn. Data were analyzed using Student's t-test with a 95% level of confidence. P values equal to or less than 0.005 were defined as statistically significant.
# (§2) For the acute effect test, HUVECs were incubated with a single dose of A2 dimer and A-type trimer for 2 and 24 hours at concentrations of 100 nM, 1 μM, and 10 μM at 37 C and 5% CO2. No effect was observed on NO production after 2 hours.
# For the chronic effect test, HUVECs were incubated with 5 subsequent doses of test compounds, each for 24 hours. After each 24 hour treatment, culture medium was replaced. A2 dimer and A-type trimer were tested.
# HUVECs = assay: MTT reduction, toxic effects on HUVECs; type: cell-based, human; conditions: acute effect test
# Procedure: as §1, §2
# [4] = tested on: platelet/monocyte and platelet/neutrophil conjugates in whole blood; assay: Platelet-leukocyte conjugate formation (P/M, P/N) by flow cytometry; type: cell-based, human; conditions: FIG. 2; 10 min; collagen 0.125-0.5 μg/ml; ASA 100 μM
# Procedure: Platelet aggregation of A1 dimer [[MUT]] was measured using a platelet counting technique, and formation of platelet/monocyte conjugates (P/M) and platelet/neutrophil conjugates (PIN) by flow cytometry. In later experiments the activation state of platelets associated with leukocytes (CD62P) was also measured and also the activation state of the leukocytes themselves (CD11b). Blood was obtained from healthy volunteers, who denied taking any aspirin or NSAIDS in the previous 10 days. This blood was dispensed into graduated polystyrene tubes that contained hirudin (final concentration 50 μg/ml) and a small volume of the flavanol under investigation or ethanol as control. The final concentration of ethanol in the blood was always 0.3%. […] Platelet-leukocyte conjugate formation was measured in the same stirred samples used to measure platelet aggregation. […] Fluorescence parameters were acquired with logarithmic amplification. Platelet monocyte (P/M) and platelet neutrophil (P/N) conjugates were quantified as median CD42a (FITC) fluorescence of the monocyte (P/M mf) or neutrophil population (PIN mf). Leukocyte activation was measured by CD11b (AlexaFluor647) expression (CD11b-M for monocytes and CD11b-N for neutrophils). Platelet activation (P-selectin expression) was measured by CD62P (PE) positivity of the platelets associated with leukocytes as (CD62P-M on P/M and CD62P-N on PIN). […]
# [5] = experimental animal studies; cited from earlier work
# [6] = acute test, single dose, after 2 hours, 100 nM, 1 μM and 10 μM
# [7] = acute test, single dose, after 24 hours, 1 μM
# [8] = acute test, single dose, after 24 hours, 10 μM, not statistically significant
# [9] = typical response of positive control
structure (smiles),measurement,setting,value
Oc1cc(O)c2c(c1)O[C@H](c1ccc(O)c(O)c1)[C@@H](O)C2 [(+)-catechin],inhibition of Leukemia virus reverse transcriptase activity,[1],inhibit
Oc1cc(O)c2c(c1)O[C@H](c1ccc(O)c(O)c1)[C@H](O)C2 [(−)-epicatechin],inhibition of Leukemia virus reverse transcriptase activity,[1],inhibit
"Oc1cc(O)c2c(c1)O[C@@]1(c3ccc(O)c(O)c3)Oc3cc(O)c4c(c3[C@@H]2[C@H]1O)O[C@H](c1ccc(O)c(O)c1)[C@@H](O)C4 [A1 dimer, epicatechin-(4β→8; 2β→O→7)-catechin]","relaxation in pre-contracted aortic rings, dose dependence",rabbit aortic rings,dose-dependent relaxation
same,"vasorelaxation, percent relaxation of NE constricted rings",rabbit aortic rings,93.20+/−3.46%
same,relaxant potency compared with positive control acetylcholine,rabbit aortic rings,more potent relaxants that the positive control
same,collagen-induced platelet aggregation,platelets in whole blood,inhibited
same,collagen induced aggregation,"platelets in whole blood; FIG. 3, 4 min",inhibited
same,leukocyte activation (CD11b),[2],did not inhibit
"Oc1cc(O)c2c(c1)O[C@@]1(c3ccc(O)c(O)c3)Oc3cc(O)c4c(c3[C@@H]2[C@H]1O)O[C@H](c1ccc(O)c(O)c1)[C@H](O)C4 [A2 dimer, epicatechin-(4β→8; 2β→O→7)-epicatechin]",effect on NO production,[3]; [6],No effect
same,effect on NO production,[3]; [7],no effect
same,effect on NO production,[3]; [8],increased NO production above the control level
same,"toxic effects, MTT assay",HUVECs,did not have toxic effects
same,"relaxation in pre-contracted aortic rings, dose dependence",rabbit aortic rings,dose-dependent relaxation
same,"vasorelaxation, percent relaxation of NE constricted rings",rabbit aortic rings,85.00+/−2.91%
same,relaxant potency compared with positive control acetylcholine,rabbit aortic rings,more potent relaxants that the positive control
Oc1cc(O)c2c(c1)O[C@@]1(c3ccc(O)c(O)c3)Oc3cc(O)c4c(c3[C@@H]2[C@H]1O)O[C@H](c1ccc(O)c(O)c1)[C@@H](O)C4c1c(O)cc(O)c2c1CC(c1ccc(O)c(O)c1)C(O)C2 (some centres unmarked) [A-type trimer],effect on NO production,[3]; [6],No effect
same,effect on NO production,[3]; [7],no effect
same,effect on NO production,[3]; [8],increased NO production above the control level
same,effect on NO production,"[3]; chronic test, 5 subsequent doses, each for 24 hours, p=0.041",statistically significant increase in NO production
same,"toxic effects, MTT assay",HUVECs,did not have toxic effects
same,"relaxation in pre-contracted aortic rings, dose dependence",rabbit aortic rings,dose-dependent relaxation
same,"vasorelaxation, percent relaxation of NE constricted rings",rabbit aortic rings,56.5+/−16.56%
"CC(=O)Oc1ccccc1C(=O)O [ASA, acetyl salicylic acid, reference compound]",collagen-induced platelet aggregation,platelets in whole blood,effectively inhibited
same,platelet/monocyte conjugates (P/M),[4],effectively inhibited
same,platelet/neutrophil conjugates (P/N),[4],effectively inhibited
same,leukocyte activation (CD11b),[2],no effect
"CC(=O)OCC[N+](C)(C)C [Acetylcholine, acetylcholine, reference compound]",concentration producing a relaxation response,rabbit aortic rings; [9],10^−7 M
same,concentration reaching maximal relaxation,rabbit aortic rings; [9],10^−6 M
O=c1c(O)c(-c2ccc(O)c(O)c2)oc2cc(O)cc(O)c12 [quercetin],anticarcinogenic activity,[5],anticarcinogenic activity
